# Experimental data as given in patent US5545647A, “3-phenylpyrrolidine derivatives” (Mitsubishi Chemical Corporation, priority 1994, dated 1996).
# System: Phosphodiesterase (PDE) IV
# Experiment: Action to Phosphodiesterase (PDE) IV Enzyme Activities (3H-cAMP hydrolysis, enzyme from U-937 cells)
# Format: biochemical
# Conditions: human histiocytic lymphoma (U-937) cytoplasm fraction enzyme; 0.4 μM 3H-cAMP; pH 8.0; 15 minutes at 30° C.; read-out: PDE IV inhibitory activity IC50
# Method: Action to Phosphodiesterase (PDE) IV Enzyme Activities
# Enzyme was partialy purified from human histiocytic lymphoma(U-937) cytoplasm fraction by means of the Q-sepharose column according to the method of Nicholson and collaborators [Br. J. Pharmacol., 97, 889 (1989)], and was reacted in a solution of 0.1 mg/ml BSA (bovine serum albumin), 1 mM EDTA (ethylenediaminetetra acetic acid), 5 mM MgCl2 and 50 mM Tris-buffer (pH 8.0) for 15 minutes at 30° C. using 0.4 μM ^3 H-cAMP as substrate according to the method of Hidaka and collaborators [Biochem. Med., 10, 301 (1974)]. ^3 H-5'-AMP generated was separated by means of the cation exchange column, and the enzyme activity was determined by measuring a radioactivity amount.
# A test compound was added. After incubation for 15 minutes at 30° C., the substrate was added. Inhibition ratios were derived for respective concentrations assuming that the reaction without the test compound was 100%. By using the probit analysis, the concentration (IC50) showing the inhibition rate of 50% was derived.
row,Structure (SMILES),IC50
1,"COc1ccc(C2CCN(C(=O)OCc3cccnc3)C2)cc1OC1CCCC1 (racemic) [Compound No. 13, (±)-3-(3-cyclopentyloxy-4-methoxyphenyl)-l-(3pyridylmethoxycarbonyl) pyrrolidine]",3.3 nM
2,"COc1ccc(C2CCN(C(=O)OCc3cccnc3)C2)cc1OC1CCCC1 (single isomer, unassigned; (-)) [Compound No. 48, (-)-3-(3-cyclopentyloxy-4-methoxyphenyl)-1-(3-pyridylmethoxycarbonyl) pyrrolidine]",1.1 nM
3,COc1ccc(C2CCN(C(=O)OC(C)(C)C)C2)cc1OC1CCCC1 (centres unmarked) [Compound No. 1],10 nM
4,"CCOC(=O)N1CCC(c2ccc(OC)c(OC3CCCC3)c2)C1 (centres unmarked) [Compound No. 4, 3-(3-cyclopentyloxy-4-methoxyphenyl)-1-(ethoxycarbonyl) pyrrolidine]",11 nM
5,COc1ccc(C2CCN(C(=O)OCc3ccccc3)C2)cc1OC1CCCC1 (centres unmarked) [compound 3],6 nM
6,CCCCOC(=O)N1CCC(c2ccc(OC)c(OC3CCCC3)c2)C1 (centres unmarked) [compound 6],6 nM
7,COc1ccc(C2CCN(C(=O)c3ccccc3)C2)cc1OC1CCCC1 (centres unmarked) [compound 7],20 nM
8,COc1ccc(C2CCN(C(=O)OC(C)(C)C)C2)cc1OC1CCOC1 (centres unmarked) [compound 8],19 nM
9,COc1ccc(C2CCN(C(=O)OCc3ccc[n+]([O-])c3)C2)cc1OC1CCCC1 (centres unmarked) [compound 17],23 nM
10,COc1ccc(C2CCN(C(=O)OCc3ccncc3)C2)cc1OC1CCCC1 (centres unmarked) [compound 19],3.8 nM
11,COc1ccc(C2CCN(C(=O)OCc3ccccn3)C2)cc1OC1CCCC1 (centres unmarked) [compound 24],2.3 nM
12,COc1ccc(C2CCN(C(=O)OCc3cccc[n+]3[O-])C2)cc1OC1CCCC1 (centres unmarked) [compound 26],8.8 nM

# Continued, values first:
row,IC50,Structure (SMILES)
1,25 nM,COc1cc2c(cc1OC)CN(C(=O)N1CCC(c3ccc(OC)c(OC4CCCC4)c3)C1)CC2 (centres unmarked) [compound 32]
2,11 nM,COc1ccc(C2CCN(C(=O)OCCc3ccccn3)C2)cc1OC1CCCC1 (centres unmarked) [compound 36]
3,19 nM,COc1ccc(C2CCN(C(=O)OCc3ccnc(Cl)c3)C2)cc1OC1CCCC1 (centres unmarked) [compound 37]
4,23 nM,COc1ccc(C2CCN(C(=O)OCc3ccc(Cl)nc3)C2)cc1OC1CCCC1 (centres unmarked) [compound 38]
5,10 nM,COc1ccc(C2CCN(C(=S)OCc3cccnc3)C2)cc1OC1CCCC1 (centres unmarked) [compound 40]
6,8 nM,COc1ccc(C2CCN(C(=O)OCc3cccnn3)C2)cc1OC1CCCC1 (centres unmarked) [compound 42]
7,300 nM,"COc1ccc(C2CNC(=O)C2)cc1OC1CCCC1 (centres unmarked) [roliplam, reference compound]"

# System: PDE IV
# Experiment: not given
# Conditions: Adv. Second Messenger Phosphoprotein Res., 22, 1 (1988); cited from earlier work
row,Structure (SMILES),specific inhibition to PDE IV
1,"COc1ccc(C2CNC(=O)C2)cc1OC1CCCC1 (centres unmarked) [roliplam, reference compound]",specific inhibition to PDE IV
